According to US10786479B2, “Methods for inhibiting conversion of carnitine to trimethylamine (TMA)” (The Procter & Gamble Company, priority 2015, dated 2020):

Molecular target: T1, Ec YeaWX lysate (Escherichia coli YeaW/YeaX) (Escherichia coli, UniProt P0ABR7)
T1 construct: create a 5′ NdeI restriction site including the ATG start codon of yeaW; create a PstI restriction site just 3′ of the yeaX TAG stop codon; made in house; host or cells: E. coli BL21 (DE3), pET30a, IPTG induction; unpurified French-press lysate supernatant
Test: Inhibition of d9-TMA formation from d9-carnitine in Ec YeaWX lysate (LC-MS/MS)
Assay type: biochemical
Settings: Ec YeaWX lysate 2.0 mg/mL protein, 250 μM NADPH, 50 μM d9-carnitine chloride, 37° C. for two hours; read-out: TMA Inhibition (IC50, mol/L)
Source text: This example provides an exemplary assay for identifying and characterizing compounds that inhibit the formation of TMA from carnitine.
Escherichia coli BL21*DE3::pET30a-Ec yeaWX #1 (Ec YeaWX) strain was generated as described below. The contiguous Escherichia coli coding sequence yeaW (equivalent to uniprot ID P0ABR7.1 (YeaW) (SEQ ID NO: 2)) and yeaX (equivalent to uniprot ID P76254.1 (YeaX) (SEQ ID NO: 3)) were PCR amplified from Escherichia coli strain K-12 substr. BW25113 genomic DNA. PCR primers (YeaW_Nde_I_fwd2—SEQ ID NO: 4; YeaX_rev2—SEQ ID NO: 5) were designed to create a 5′ NdeI restriction site including the ATG start codon of yeaW and create a PstI restriction site just 3′ of the yeaX TAG stop codon.
The amplicon was restricted and cloned into the NdeI and PstI sites of the plasmid pET30a downstream of the inducible T7 promoter. A blast search of the resulting cloned amplicon DNA sequence (SEQ ID NO: 1) corresponded to nucleotide range 1884665 to 1886810 of Escherichia coli str. K-12 substr. MG1655 (NCBI Accession # NC_000913). The construct was transformed and grown in E. coli BL21 (DE3) and the recombinant yeaWX overexpressed by addition of isopropyl β-D-1-thiogalactopyranoside (IPTG).
The bacteria were grown aerobically in 50 mL LB broth (Difco #244620; 10 g/L Tryptone, 5 g/L yeast extract, 10 g/L NaCl, 50 μg/mL kanamycin), in a 500 mL Erlenmeyer flask. The cultures were inoculated from glycerol stock of BL21*DE3::pET30a-Ec yeaWX #1 strain. Strains were cultured all day at 37° C. with 250 rpm shaking. Two 300 mL Minimal M9 Medium (6 g/L Na2HPO4, 3 g/L KH2PO4, 0.5 g/L NaCl, 1 g/L NH4Cl, 0.1 mM CaCl2, 1 mM MgSO4, 0.2% Dextrose, 1 mg/L Thiamine, 50 μg/mL kanamycin), in 1 L Erlenmeyer flasks, were inoculated with 5 mL of the LB broth day culture and cultured overnight at 37° C. with 250 rpm shaking. The overnight cultures were used to inoculate twelve 1 L cultures of Minimal M9 media in 2.8 L fluted Erlenmeyer flasks to an OD 600 nm of 0.05 (typically approximately 28 mLs), which were grown at 37° C. with 250 rpm shaking until an OD600 of approximately 0.4 was reached. Expression of YeaWX was induced with 1 mM IPTG and the induced cultures were further grown overnight at 37° C. with 250 rpm shaking. The biomass was pelleted by centrifugation at 6000×g for 12 minutes at 4° C. The cell pellet was suspended in 240 mL of ice-cold 1× Phosphate Buffered Saline (Ca^2+ and Mg^2+ free). Ninety micrograms of Lysozyme (Sigma # L6876 Lot # SLBG8654V; Sigma-Aldrich Corp., St. Louis, Mo.) was added and incubated with 320 rpm shaking for 30 minutes at 4° C. Lysis was achieved via French press with a 4° C. prechilled 1″ diameter chamber at 1000 psi (high ratio; internal PSI equivalent ˜16000). The lysate was centrifuged at 6,000×g for 12 minutes at 4° C. to pellet extra debris. Glycerol was added to the centrifuged lysate supernatant at a final concentration of 15% A protein concentration of the centrifuged lysate supernatant was determined by a BCA Protein Assay Kit (Pierce #23225), typically in the 2.5 to 4.5 mg/ml range. The centrifuged Ec YeaWX lysate supernatant was aliquoted into 20 mL volumes and stored frozen at −80° C.
Ec YeaWX lysate was diluted to 2.0 mg/mL protein with 1× Dulbecco's phosphate buffered saline (DPBS) plus 15% glycerol. Nicotinamide adenine dinucleotide phosphate (NADPH) was added to 250 μM. One hundred and fifty microliters of Ec YeaWX lysate was dispensed into a deep-well plate (polypropylene, 2 mL volume, Corning Axygen catalogue # P-DW-20-C). […] The plates were agitated on a plate shaker for 1 minute. d9-carnitine chloride (1.5 μL of 5 mM) was added to all wells to reach a final d9-carnitine chloride concentration of 50 μM.
The plates were again agitated on a plate shaker for 1 minute and incubated at 37° C. for two hours. After incubation, 1.5 μL of formic acid was added to each well (final concentration=1% formic acid). The plates were agitated on a plate shaker for 1 minute and placed on ice. […]

T1 sequence (P0ABR7 whole entry): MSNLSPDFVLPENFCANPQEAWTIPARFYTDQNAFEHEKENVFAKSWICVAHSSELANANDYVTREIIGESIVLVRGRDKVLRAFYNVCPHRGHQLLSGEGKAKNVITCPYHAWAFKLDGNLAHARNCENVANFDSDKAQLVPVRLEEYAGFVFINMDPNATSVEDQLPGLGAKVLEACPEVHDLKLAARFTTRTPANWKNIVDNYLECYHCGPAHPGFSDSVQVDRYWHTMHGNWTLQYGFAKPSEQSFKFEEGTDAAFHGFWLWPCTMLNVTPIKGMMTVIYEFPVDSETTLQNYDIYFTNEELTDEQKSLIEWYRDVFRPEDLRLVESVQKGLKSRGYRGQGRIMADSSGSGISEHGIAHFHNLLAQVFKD

Compound	IC50 [µM]
CC(C)N=C=S [Compound 15, Isopropyl isothiocyanate]	200
CC(C)(C)OC(=O)NCCCCN=C=S [Compound 22, N-Boc-4-isothiocyanatobutylamine]	17.7
CCc1ccc(N=C=S)cc1 [Compound 31, 4-Ethylphenyl isothiocyanate]	17.3
CN(C)CCCN=C=S [Compound 41, 3-isothiocyanato-N,N-dimethyl-1-Propanamine]	320
CCC(C)N=C=S (stereo not drawn) [Compound 10, sec-butyl isothiocyanate]	146
CCCCCN=C=S [Compound 6, 1-pentyl isothiocyanate]	32.2
CSc1ccc(N=C=S)cc1 [Compound 4, 4-(Methylthio)phenyl isothiocyanate]	10.8
CC(C)(C)OC(=O)Nc1ccc(N=C=S)cc1 [Compound 23, N-Boc-4-isothiocyanatoaniline]	15.7
COc1cccc(N=C=S)c1 [Compound 34, 3-Methoxyphenyl isothiocyanate]	9.59
CCCCCCN=C=S [Compound 17, Hexyl isothiocyanate]	43.5
S=C=NCC1CCCCC1 [Compound 8, Cyclohexylmethyl isothiocyanate]	38.1
Cc1cccc(N=C=S)c1 [Compound 3, m-Tolyl isothiocyanate]	14.5
CC(C)CCN=C=S [Compound 16, 1-isothiocyanato-3-methylbutane]	75.9
COc1ccc(N=C=S)cc1 [Compound 28, 4-Methoxyphenyl isothiocyanate]	5.76
COc1ccc(C)cc1N=C=S [Compound 1, 2-Methoxy-5-methylphenyl isothiocyanate]	61.6
S=C=Nc1ccc(Cl)cc1 [Compound 27, 4-Chlorophenyl isothiocyanate]	4.57
CC(C)CN=C=S [Compound 12, Isobutyl isothiocyanate]	74.5
S=C=Nc1ccc(Br)cc1 [Compound 20, 4-Bromophenyl isothiocyanate]	4.72
COc1ccccc1N=C=S [Compound 32, 2-Methoxyphenyl isothiocyanate]	33.3
S=C=NCCN1CCOCC1 [Compound 25, 2-(4-Morpholino)ethyl isothiocyanate]	69
CCN(CC)CCN=C=S [Compound 40, Ethanamine, N,N-diethyl-2-isothiocyanato]	320

Compound	IC50 [µM]
CCOC(=O)CN=C=S [Compound 36, Ethyl isothiocyanatoacetate]	30
Methyl isothiocyanate [Compound 14]	149
S=C=NCCCN1CCOCC1 [Compound 24, 3-(4-Morpholino)propyl isothiocyanate]	68.5
Ethyl isothiocyanate [Compound 11]	82.2
S=C=Nc1cccc2ccccc12 [Compound 19, 1-Naphthyl isothiocyanate]	12.5
CC(C)(C)N=C=S [Compound 2, tert-Butyl isothiocyanate]	> 1000
CC(=O)O[C@H]1[C@H](OC(C)=O)[C@@H](N=C=S)OC[C@H]1OC(C)=O [Compound 39, 2,3,4-Tri-O-acetyl-α-D-arabinopyranosyl isothiocyanate]	50.1
S=C=NC(c1ccccc1)c1ccccc1 [Compound 38, Benzhydryl isothiocyanate]	3.05
CCCCCC12CCC(C(=O)Oc3ccc(N=C=S)cc3)(CC1)CC2 [Compound 37, 4-Isothiocyanatophenyl 4-pentylbicyclo[2.2.2] octane-1-carboxylate]	> 1000
O=C(N=C=S)c1ccccc1 [Compound 21, Benzoyl isothiocyanate]	138
S=C=NC1CCCCC1 [Compound 30, Cyclohexyl isothiocyanate]	38.8
COc1ccc(OC)c(N=C=S)c1 [Compound 33, 2,5-Dimethoxyphenyl isothiocyanate]	47.7
S=C=NCc1ccccc1 [Compound 5, Benzyl isothiocyanate]	8.37
CCCCN=C=S [Compound 13, Butyl isothiocyanate]	63.6
C[C@H](N=C=S)c1ccccc1 [Compound 26, (S)-(+)-alpha-Methylbenzyl isothiocyanate]	7.34
S=C=NCCc1ccc(Cl)cc1 [Compound 9, 2-(4-Chlorophenethyl) isothiocyanate]	12.7
CCN(CC)CCCN=C=S [Compound 7, 3-(Diethylamino)propyl isothiocyanate]	146
S=C=N[C@@H]1C[C@H]2CC[C@@H]1C2 (relative stereo) [Compound 29, exo-2-Norbornyl-isothiocyanate]	21.6
S=C=Nc1ccccc1 [Compound 18, Phenyl isothiocyanate]	6.45
S=C=NCCN1CCCCC1 [Compound 35, 2-Piperidinoethyl isothiocyanate]	104
CN(C)CCN=C=S [Compound 42, 2-Isothiocyanato-N,N-dimethylethanamine]	164
